{
  "source": "PubChem BioAssay AID2060624",
  "about": "(Molecular Pharmacology Branch, DTP, NCI, 2025);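 also: spheroids exposed to agents for seven days before reading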;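 as to viability, T/C: 100% = DMSO vehicle control viability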",
  "tested_on": "217524-143-R1-J4-PDC spheroids with HUVEC/MSC, viability",
  "test": "Anticancer human tumor 217524-143-R1-J4-PDC patient-derived pancreatic carcinoma cell line growth inhibition [CLK]",
  "settings": "for IC50: curve of first compound; for viability, T/C: stronger effect = lower value",
  "from_the_text": "A high-throughput screen of multi-cell type tumor spheroids was designed to identify active combinations of […] and targeted small molecules. Complex spheroids include a stromal component modeled by human endothelial cells (HUVEC) and fibroblasts modeled by human mesenchymal stem cells (MSCs). The concentration ranges selected for each drug and investigational agent were based upon clinically achievable concentrations if the clinical Cmax of the agent was known.\nCompounds. The drugs and investigational agents: cirtuvivint (SM08502; NSC835563), CC-671 (NSC850746), vemurafenib (NSC761431), tapotoclax (NSC804041), sotorasib (NSC818433), adagrasib (NSC831453), MRTX-1133 (NSC836407), BAY2416964 (NSC825713), copanlisib (NSC816437), inavolisib (NSC800729), abemaciclib (NSC768073), osimertinib (NSC779217), entinostat (NSC756642), eltanexor (KPT-8602, NSC794443), venetoclax (NSC766270), ceralasertib (NSC777638), bortezomib (NSC756655), olaparib (NSC753686), talazoparib (NSC767125), alisertib (NSC759677), peposertib (NSC802822), gemcitabine (NSC613327), 5-fluorouracil (NSC19893), SN-38 (NSC673596), oxaliplatin (NSC266046), paclitaxel (NSC125973), and doxorubicin (NSC123127), were obtained from the National Cancer Institute (NCI) Developmental Therapeutics Program Chemical Repository. The FDA-approved anticancer drug set is available from the Developmental Therapeutics Program at https://dtp.cancer.gov/organization/dscb/obtaining/available plates.htm. […] The stock solutions were prepared in dimethyl sulfoxide (DMSO, Sigma-Aldrich, St. Louis, MO, cat. D2650), except for the platinum complexes which were prepared in saline (Quality Biological, Gaithersburg, MD, cat. 114-055-101), at 800-fold the tested concentration and stored at -70 degrees C prior to their use. All drugs and investigational agents were tested over a range starting from a high concentration at or near the clinical Cmax and decreasing in half-log increments. If the clinical Cmax for an agent had not been determined, the highest concentration tested was 10 microM.\nCell Culture. All cells were maintained in an incubator at 37 degrees C and 5% CO2 with 95% humidity. The PDC lines were cultured according to standard operating procedures established by the NCI PDMR. Briefly, all PDCs were thawed and cultured in Matrigel-coated flasks prepared with a working solution of 1X Ham's F-12 nutrient mix, without supplementation (Invitrogen, Waltham, MA, cat. 11765054), 100 U/mL penicillin-streptomycin (Invitrogen, cat. 15140122), and 2.5% Matrigel (Corning Inc., Corning, NY, cat. 354248) for the first three passages. The 947758-054-R-J2-PDC line was cultured in 6B/Colon 1A media, which includes advanced DMEM/F-12 (Thermo Fisher Scientific, cat. 12634028), 10 mM HEPES (Thermo Fisher Scientific, cat. 15630080), 1X GlutaMAX supplement (Thermo Fisher Scientific, cat. 35050061), 0.1 mg/mL primocin (InvivoGen, cat. ant-pm-2), 10% defined fetal bovine serum, heat inactivated (HyClone Laboratories Inc., cat. SH30070.03HI), 1.25 mM N-Acetyl-L-cysteine (Sigma-Aldrich, cat. A9165), 10 mM nicotinamide (Sigma-Aldrich, cat. N0636), 1X B-27 supplement (Thermo Fisher Scientific, cat. 17504044), 1X N-2 supplement (Thermo Fisher Scientific, cat. 17502048), and 10 microM Y-27632 dihydrochloride (Tocris Bioscience, cat. 1254). The 876862-298-R-J1-PDC was cultured in 6E media, which includes all 6B/Colon 1A media components plus 50% L-WRN conditioned media (ATCC, cat. CRL-3276), 50 ng/mL recombinant human EGF recombinant protein (hEGF; Thermo Fisher Scientific, cat. PHG0311), 10 ng/mL recombinant human fibroblast growth factor 10 (hGFG-10; PeproTech, cat. 100-26), 1 ng/mL recombinant human fibroblast growth factor 2 (hFGF-2; PeproTech, cat. 100-18B), and 1 µM prostaglandin E2 (PGE2; Tocris, cat. 2296). The 227483-062-R1-J1-PDC line was cultured in Panc media, containing all 6E components except hFGF-2, with the addition of 500 nM SB-431542 (Selleckchem, cat. S1067) and 10 nM gastrin (Tocris, cat. 3006). […]",
  "data": [
    {"smiles": "Nc1ccccc1NC(=O)c1ccc(CNC(=O)OCc2cccnc2)cc1", "note": "+ CN1CCN(c2cc(C(=O)Nc3cc4cc(-c5cnn(C)c5)ccc4cn3)ccn2)CC1", "values": [
      {"measurement": "IC50", "setting": "second compound 0.0316 µM", "result": 3750, "unit": "nM"},
      {"measurement": "IC50", "setting": "second compound 0.1 µM", "result": 1980, "unit": "nM"},
      {"measurement": "IC50", "setting": "second compound 0.316 µM", "result": "< 31.6", "unit": "nM"},
      {"measurement": "IC50", "setting": "second compound 1 µM", "result": "< 31.6", "unit": "nM"},
      {"measurement": "IC50", "setting": "second compound 3.16 µM", "result": "< 31.6", "unit": "nM"},
      {"measurement": "IC50", "setting": "second compound 10 µM", "result": "< 31.6", "unit": "nM"},
      {"measurement": "viability, T/C", "setting": "second compound 0.0316 µM, first compound 0.0316 µM", "result": 84.2, "unit": "%"},
      {"measurement": "viability, T/C", "setting": "second compound 0.0316 µM, first compound 0.1 µM", "result": 84.9, "unit": "%"},
      {"measurement": "viability, T/C", "setting": "second compound 0.0316 µM, first compound 0.316 µM", "result": 80.2, "unit": "%"},
      {"measurement": "viability, T/C", "setting": "second compound 0.0316 µM, first compound 1 µM", "result": 66.5, "unit": "%"},
      {"measurement": "viability, T/C", "setting": "second compound 0.0316 µM, first compound 3.16 µM", "result": 57.4, "unit": "%"},
      {"measurement": "viability, T/C", "setting": "second compound 0.0316 µM, first compound 10 µM", "result": 23.1, "unit": "%"},
      {"measurement": "viability, T/C", "setting": "second compound 0.1 µM, first compound 0.0316 µM", "result": 65.5, "unit": "%"},
      {"measurement": "viability, T/C", "setting": "second compound 0.1 µM, first compound 0.1 µM", "result": 61.1, "unit": "%"},
      {"measurement": "viability, T/C", "setting": "second compound 0.1 µM, first compound 0.316 µM", "result": 63.5, "unit": "%"},
      {"measurement": "viability, T/C", "setting": "second compound 0.1 µM, first compound 1 µM", "result": 60.8, "unit": "%"},
      {"measurement": "viability, T/C", "setting": "second compound 0.1 µM, first compound 3.16 µM", "result": 42.6, "unit": "%"},
      {"measurement": "viability, T/C", "setting": "second compound 0.1 µM, first compound 10 µM", "result": 19.9, "unit": "%"},
      {"measurement": "viability, T/C", "setting": "second compound 0.316 µM, first compound 0.0316 µM", "result": 18.9, "unit": "%"},
      {"measurement": "viability, T/C", "setting": "second compound 0.316 µM, first compound 0.1 µM", "result": 20.2, "unit": "%"},
      {"measurement": "viability, T/C", "setting": "second compound 0.316 µM, first compound 0.316 µM", "result": 27.3, "unit": "%"},
      {"measurement": "viability, T/C", "setting": "second compound 0.316 µM, first compound 1 µM", "result": 39.2, "unit": "%"},
      {"measurement": "viability, T/C", "setting": "second compound 0.316 µM, first compound 3.16 µM", "result": 28.9, "unit": "%"},
      {"measurement": "viability, T/C", "setting": "second compound 0.316 µM, first compound 10 µM", "result": 5.46, "unit": "%"},
      {"measurement": "viability, T/C", "setting": "second compound 1 µM, first compound 0.0316 µM", "result": 1.9, "unit": "%"},
      {"measurement": "viability, T/C", "setting": "second compound 1 µM, first compound 0.1 µM", "result": 1.63, "unit": "%"},
      {"measurement": "viability, T/C", "setting": "second compound 1 µM, first compound 0.316 µM", "result": 1.82, "unit": "%"},
      {"measurement": "viability, T/C", "setting": "second compound 1 µM, first compound 1 µM", "result": 1.83, "unit": "%"},
      {"measurement": "viability, T/C", "setting": "second compound 1 µM, first compound 3.16 µM", "result": 0.8, "unit": "%"},
      {"measurement": "viability, T/C", "setting": "second compound 1 µM, first compound 10 µM", "result": 0.38, "unit": "%"},
      {"measurement": "viability, T/C", "setting": "second compound 3.16 µM, first compound 0.0316 µM", "result": 0.79, "unit": "%"},
      {"measurement": "viability, T/C", "setting": "second compound 3.16 µM, first compound 0.1 µM", "result": 1.03, "unit": "%"},
      {"measurement": "viability, T/C", "setting": "second compound 3.16 µM, first compound 0.316 µM", "result": 0.98, "unit": "%"},
      {"measurement": "viability, T/C", "setting": "second compound 3.16 µM, first compound 1 µM", "result": 0.64, "unit": "%"},
      {"measurement": "viability, T/C", "setting": "second compound 3.16 µM, first compound 3.16 µM", "result": 0.44, "unit": "%"},
      {"measurement": "viability, T/C", "setting": "second compound 3.16 µM, first compound 10 µM", "result": 0.54, "unit": "%"},
      {"measurement": "viability, T/C", "setting": "second compound 10 µM, first compound 0.0316 µM", "result": 0.13, "unit": "%"},
      {"measurement": "viability, T/C", "setting": "second compound 10 µM, first compound 0.1 µM", "result": 0.21, "unit": "%"},
      {"measurement": "viability, T/C", "setting": "second compound 10 µM, first compound 0.316 µM", "result": 0.25, "unit": "%"},
      {"measurement": "viability, T/C", "setting": "second compound 10 µM, first compound 1 µM", "result": 0.2, "unit": "%"},
      {"measurement": "viability, T/C", "setting": "second compound 10 µM, first compound 3.16 µM", "result": 0.23, "unit": "%"},
      {"measurement": "viability, T/C", "setting": "second compound 10 µM, first compound 10 µM", "result": 0.3, "unit": "%"}
    ]}
  ]
}
